Non-standard residues stand in square brackets, D forms with d. Residues, ends and D or L forms follow the SMILES beside them. *: point of attachment. Dolaproine = CO[C@@H]([C@@H]1CCCN1)[C@@H](C)C(=O)O; Dil = CC[C@H](C)[C@H](NC)[C@@H](CC(=O)O)OC; X1 = C[C@@H](N*)[C@@H](O)c1ccccc1; NMeV = CN[C@H](C(=O)O)C(C)C
Legend:
[1] = tested on: acute myeloid leukemia (AML) at relapse; details: administered alone; cited from earlier work
[2] = Phase 1 study of EV: pharmacokinetics; format: in vivo, human; details: EV dosing on Days 1, 8 and 15 of every 28-day cycle
Excerpt: Based on pharmacokinetic data from the phase 1 study, the half-life of EV is ˜1-2 days. […] Minimal (<50%) intra-cycle accumulation of MMAE was observed. It is anticipated that the dosing schedule in the study will maintain ADC exposures over each 28-day cycle, contributing to a favorable balance of activity and safety, as observed in the phase 1 trial.

urothelial cancer = details: second line treatment; best supportive care 4.6 months; cited from earlier work
subjects = details: cited from earlier work
PD-1 = PD-1 (Homo sapiens, UniProt Q15116); details: cited from earlier work
[3] = tested on: locally advanced or metastatic urothelial cancer; details: second line, KEYNOTE-045; cited from earlier work

Sequence of PD-1 (Q15116 25-288): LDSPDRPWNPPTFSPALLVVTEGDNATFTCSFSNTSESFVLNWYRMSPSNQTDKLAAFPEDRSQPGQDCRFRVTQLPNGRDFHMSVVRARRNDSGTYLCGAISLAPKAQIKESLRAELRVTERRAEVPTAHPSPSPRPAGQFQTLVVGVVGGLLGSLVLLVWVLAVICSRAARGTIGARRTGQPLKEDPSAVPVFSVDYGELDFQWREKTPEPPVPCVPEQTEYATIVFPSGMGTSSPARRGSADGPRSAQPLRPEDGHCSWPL

CT-011: anti-PD-1 antibody, a humanized antibody
response in acute myeloid leukemia (AML) at relapse [1]: failed to show response

CC[C@H](C)[C@@H]([C@@H](CC(=O)N1CCC[C@H]1[C@H](OC)[C@@H](C)C(=O)N[C@H](C)[C@@H](O)c1ccccc1)OC)N(C)C(=O)[C@@H](NC(=O)[C@@H](NC)C(C)C)C(C)C [MMAE, monomethyl auristatin E, reference compound] (H-[NMeV]V[Dil][Dolaproine]-X1)
intra-cycle accumulation of MMAE [2]: < 50%

CC[C@]12C=CCN3CC[C@@]4(c5cc([C@@]6(C(=O)OC)C[C@@H]7C[C@@H](C(C)(F)F)CN(Cc8c6[nH]c6ccccc86)C7)c(OC)cc5N(C)[C@H]4[C@@](O)(C(=O)OC)[C@@H]1OC(C)=O)[C@@H]32 [Vinflunine, vinflunine]
Median OS (urothelial cancer): 6.9 months | Cases of Posterior Reversible Encephalopathy Syndrome (PRES) (subjects; after administration of vinflunine): have been observed

BGB-A317: anti-PD-1 monoclonal antibody in which the ability to bind Fc gamma receptor I is engineered out
binding to PD-1 (PD-1): high affinity

CC(=O)O[C@@]12CO[C@@H]1C[C@H](O)[C@@]1(C)C(=O)[C@H](O)C3=C(C)[C@@H](OC(=O)[C@H](O)[C@@H](NC(=O)OC(C)(C)C)c4ccccc4)C[C@@](O)([C@@H](OC(=O)c4ccccc4)[C@H]21)C3(C)C [Docetaxel, docetaxel]
fluid retention following docetaxel therapy (subjects; in vivo): Severe fluid retention has been reported

pembrolizumab: humanized monoclonal IgG4 anti-PD-1 antibody
Median OS [3]: 10.3 months
